Measured values from BindingDB's records for doi:10.1021/jm3004174 (Taiho Pharmaceutical, 2012).

experiment: Inhibition of dUTPase in human HeLa S3 cells assessed as potentiation of 1 uM FdUrd-induced decrease in cell density incubated for 24 hrs by crystal violet assay

In order of rising EC50:
1. CC[C@@H](Cn1nncc1CCCCn1ccc(=O)[nH]c1=O)c1cccc(OCC2CC2)c1  50 nM
2. CC[C@@](O)(Cn1nncc1CCCCn1ccc(=O)[nH]c1=O)c1ccc(F)c(OCC2CC2)c1  70 nM
3. O=c1ccn(CCCCc2cnnn2CCc2cccc(OCC3CC3)c2)c(=O)[nH]1  260 nM
4. O=c1ccn(CCCc2cnnn2CC(c2ccccc2)c2ccccc2)c(=O)[nH]1  1100 nM
